Measurements: the OligoGym collection
“And” between values parts separate entries of the source, which are not always exact repeats. Equal entries are not always repeated. HELM strings list units from the 5' end as sugar, base in round brackets, then linkage (d deoxyribose, r ribose, m 2'-O-methyl, p phosphodiester). Methylation of C is not given here. [moe] = 2'-O-(2-methoxyethyl) (MOE); [cEt] = constrained ethyl (cEt); [sp] = phosphorothioate linkage

biological target: HBV; details: ASO, HepG2, 0.0092593 µM

Substance	target mRNA inhibition [%]
RNA1{[moe](G)[sp].[moe](G)[sp].[moe](C)[sp].d(A)[sp].d(T)[sp].d(A)[sp].d(G)[sp].d(C)[sp].d(A)[sp].d(G)[sp].d(C)[sp].d(A)[sp].[moe](G)[sp].[moe](G)[sp].[moe](A)[sp].[moe](T)[sp].[moe](G)}$$$$V2.0	16

same assay, conditions: ASO, HepG2, 0.0277778 µM

Substance	target mRNA inhibition [%]
RNA1{[moe](G)[sp].[moe](G)[sp].[moe](C)[sp].d(A)[sp].d(T)[sp].d(A)[sp].d(G)[sp].d(C)[sp].d(A)[sp].d(G)[sp].d(C)[sp].d(A)[sp].[moe](G)[sp].[moe](G)[sp].[moe](A)[sp].[moe](T)[sp].[moe](G)}$$$$V2.0	11

same assay, conditions: ASO, HepG2, 0.07 µM

Substance	target mRNA inhibition
RNA1{[moe](G)[sp].[moe](G)[sp].[moe](C)[sp].d(A)[sp].d(T)[sp].d(A)[sp].d(G)[sp].d(C)[sp].d(A)[sp].d(G)[sp].d(C)[sp].d(A)[sp].[moe](G)[sp].[moe](G)[sp].[moe](A)[sp].[moe](T)[sp].[moe](G)}$$$$V2.0	68% and 66%
RNA1{[moe](G)[sp].[moe](G)[sp].[moe](T)[sp].[moe](G)[sp].[moe](A)[sp].d(A)[sp].d(G)[sp].d(C)[sp].d(G)[sp].d(A)[sp].d(A)[sp].d(G)[sp].d(T)[sp].d(G)[sp].[moe](C)[sp].[moe](A)}$$$$V2.0	51% and 46%
RNA1{[moe](G)[sp].[moe](G)[sp].d(T)[sp].d(G)[sp].d(A)[sp].d(A)[sp].d(G)[sp].d(C)[sp].d(G)[sp].d(A)[sp].d(A)[sp].[moe](G)[sp].[moe](T)[sp].[moe](G)[sp].[moe](C)[sp].[moe](A)[sp].[moe](C)}$$$$V2.0	77% and 71%
RNA1{[moe](G)[sp].[moe](G)[sp].d(T)[sp].d(G)[sp].d(A)[sp].d(A)[sp].d(G)[sp].d(C)[sp].d(G)[sp].d(A)[sp].d(A)[sp].[moe](G)[sp].[moe](T)[sp].[moe](G)[sp].[moe](C)[sp].[moe](A)}$$$$V2.0	65% and 62%
RNA1{[moe](G)[sp].[moe](T)[sp].[moe](G)[sp].[moe](C)[sp].d(A)[sp].d(G)[sp].d(A)[sp].d(G)[sp].d(G)[sp].d(T)[sp].d(G)[sp].d(A)[sp].d(A)[sp].[moe](G)[sp].[moe](C)[sp].[moe](G)[sp].[moe](A)}$$$$V2.0	62% and 54%
RNA1{[moe](G)[sp].[moe](T)[sp].[moe](G)[sp].[moe](C)[sp].d(A)[sp].d(G)[sp].d(A)[sp].d(G)[sp].d(G)[sp].d(T)[sp].d(G)[sp].d(A)[sp].d(A)[sp].[moe](G)[sp].[moe](C)[sp].[moe](G)}$$$$V2.0	64% and 63%
RNA1{[moe](G)[sp].[moe](T)[sp].[moe](G)[sp].d(C)[sp].d(A)[sp].d(G)[sp].d(A)[sp].d(G)[sp].d(G)[sp].d(T)[sp].d(G)[sp].d(A)[sp].d(A)[sp].[cEt](G)[sp].[cEt](C)[sp].[cEt](G)}$$$$V2.0	78% and 74%
RNA1{[moe](G)[sp].[moe](T)[sp].[moe](T)[sp].[moe](C)[sp].[moe](C)[sp].[moe](G)[sp].d(C)[sp].d(A)[sp].d(G)[sp].d(T)[sp].d(A)[sp].d(T)[sp].d(G)[sp].d(G)[sp].d(A)[sp].[moe](T)[sp].[moe](C)}$$$$V2.0	74% and 57%
RNA1{[moe](G)[sp].[moe](T)[sp].d(G)[sp].d(A)[sp].d(A)[sp].d(G)[sp].d(C)[sp].d(G)[sp].d(A)[sp].d(A)[sp].d(G)[sp].[moe](T)[sp].[moe](G)[sp].[moe](C)[sp].[moe](A)[sp].[moe](C)[sp].[moe](A)}$$$$V2.0	73% and 68%
RNA1{[moe](G)[sp].[moe](T)[sp].d(G)[sp].d(C)[sp].d(A)[sp].d(G)[sp].d(A)[sp].d(G)[sp].d(G)[sp].d(T)[sp].d(G)[sp].[moe](A)[sp].[moe](A)[sp].[moe](G)[sp].[moe](C)[sp].[moe](G)}$$$$V2.0	53% and 42%
RNA1{[moe](T)[sp].[cEt](A)[sp].[cEt](T)[sp].d(G)[sp].d(C)[sp].d(C)[sp].d(T)[sp].d(A)[sp].d(C)[sp].d(A)[sp].d(G)[sp].d(C)[sp].d(C)[sp].[cEt](T)[sp].[cEt](C)[sp].[moe](C)}$$$$V2.0	55% and 36%
RNA1{[moe](T)[sp].[cEt](G)[sp].d(A)[sp].d(G)[sp].d(A)[sp].d(G)[sp].d(A)[sp].d(A)[sp].d(G)[sp].d(T)[sp].d(C)[sp].d(C)[sp].[cEt](A)[sp].[moe](C)[sp].[cEt](C)[sp].[moe](A)}$$$$V2.0	60% and 43%
RNA1{[moe](T)[sp].[cEt](G)[sp].d(A)[sp].d(G)[sp].d(G)[sp].d(C)[sp].d(A)[sp].d(T)[sp].d(A)[sp].d(G)[sp].d(C)[sp].d(A)[sp].[cEt](G)[sp].[moe](C)[sp].[cEt](A)[sp].[moe](G)}$$$$V2.0	69% and 75%
RNA1{[moe](T)[sp].[cEt](T)[sp].[cEt](C)[sp].d(C)[sp].d(G)[sp].d(C)[sp].d(A)[sp].d(G)[sp].d(T)[sp].d(A)[sp].d(T)[sp].d(G)[sp].d(G)[sp].[cEt](A)[sp].[cEt](T)[sp].[moe](C)}$$$$V2.0	47% and 61%
RNA1{[moe](T)[sp].[cEt](T)[sp].[cEt](T)[sp].d(A)[sp].d(T)[sp].d(G)[sp].d(C)[sp].d(C)[sp].d(T)[sp].d(A)[sp].d(C)[sp].d(A)[sp].d(G)[sp].[cEt](C)[sp].[cEt](C)[sp].[moe](T)}$$$$V2.0	55% and 49%
RNA1{[moe](T)[sp].[moe](A)[sp].[moe](T)[sp].[moe](G)[sp].d(C)[sp].d(C)[sp].d(T)[sp].d(A)[sp].d(C)[sp].d(A)[sp].d(G)[sp].d(C)[sp].d(C)[sp].[moe](T)[sp].[moe](C)[sp].[moe](C)}$$$$V2.0	33% and 42%
RNA1{[moe](T)[sp].[moe](A)[sp].[moe](T)[sp].d(G)[sp].d(C)[sp].d(C)[sp].d(T)[sp].d(A)[sp].d(C)[sp].d(A)[sp].d(G)[sp].d(C)[sp].d(C)[sp].[cEt](T)[sp].[cEt](C)[sp].[cEt](C)}$$$$V2.0	39% and 45%
RNA1{[moe](T)[sp].[moe](A)[sp].d(T)[sp].d(G)[sp].d(C)[sp].d(C)[sp].d(T)[sp].d(A)[sp].d(C)[sp].d(A)[sp].d(G)[sp].[moe](C)[sp].[moe](C)[sp].[moe](T)[sp].[moe](C)[sp].[moe](C)}$$$$V2.0	54% and 55%
RNA1{[moe](T)[sp].[moe](G)[sp].[moe](A)[sp].[moe](A)[sp].d(G)[sp].d(C)[sp].d(G)[sp].d(A)[sp].d(A)[sp].d(G)[sp].d(T)[sp].d(G)[sp].d(C)[sp].[moe](A)[sp].[moe](C)[sp].[moe](A)[sp].[moe](C)}$$$$V2.0	62% and 51%
RNA1{[moe](T)[sp].[moe](G)[sp].[moe](A)[sp].[moe](A)[sp].d(G)[sp].d(C)[sp].d(G)[sp].d(A)[sp].d(A)[sp].d(G)[sp].d(T)[sp].d(G)[sp].d(C)[sp].[moe](A)[sp].[moe](C)[sp].[moe](A)}$$$$V2.0	43% and 52%
RNA1{[moe](T)[sp].[moe](G)[sp].[moe](A)[sp].[moe](G)[sp].[moe](G)[sp].d(C)[sp].d(A)[sp].d(T)[sp].d(A)[sp].d(G)[sp].d(C)[sp].d(A)[sp].d(G)[sp].d(C)[sp].[moe](A)[sp].[moe](G)}$$$$V2.0	48% and 51%
RNA1{[moe](T)[sp].[moe](G)[sp].[moe](A)[sp].[moe](G)[sp].d(G)[sp].d(C)[sp].d(A)[sp].d(T)[sp].d(A)[sp].d(G)[sp].d(C)[sp].d(A)[sp].d(G)[sp].[moe](C)[sp].[moe](A)[sp].[moe](G)[sp].[moe](G)}$$$$V2.0	38% and 40%
RNA1{[moe](T)[sp].[moe](G)[sp].[moe](A)[sp].[moe](G)[sp].d(G)[sp].d(C)[sp].d(A)[sp].d(T)[sp].d(A)[sp].d(G)[sp].d(C)[sp].d(A)[sp].d(G)[sp].[moe](C)[sp].[moe](A)[sp].[moe](G)}$$$$V2.0	56% and 53%

same assay, conditions: ASO, HepG2, 0.0833333 µM

Substance	target mRNA inhibition [%]
RNA1{[moe](G)[sp].[moe](G)[sp].[moe](C)[sp].d(A)[sp].d(T)[sp].d(A)[sp].d(G)[sp].d(C)[sp].d(A)[sp].d(G)[sp].d(C)[sp].d(A)[sp].[moe](G)[sp].[moe](G)[sp].[moe](A)[sp].[moe](T)[sp].[moe](G)}$$$$V2.0	40

same assay, conditions: ASO, HepG2, 0.25 µM

Substance	target mRNA inhibition [%]
RNA1{[moe](G)[sp].[moe](G)[sp].[moe](C)[sp].d(A)[sp].d(T)[sp].d(A)[sp].d(G)[sp].d(C)[sp].d(A)[sp].d(G)[sp].d(C)[sp].d(A)[sp].[moe](G)[sp].[moe](G)[sp].[moe](A)[sp].[moe](T)[sp].[moe](G)}$$$$V2.0	66
